Laboratory results from US20230322792A1, “CDK9 INHIBITORS” (Biolexis Therapeutics, Inc., priority 2022, published 2023).

biological target: CDK9/CycT1 (Homo sapiens (Human), UniProt P50750); assay: ADP-Glo Kinase Assay; assay type: biochemical
Procedure: ADP-Glo assay kit was purchased from Promega and the CDK9/CycT1 protein and PDKtide substrate were purchased from SignalChem. […] The reaction is started by pre-incubating 4 μL of protein (20 nM), 2 μL of substrate (100 μM), and 2 μL of serial diluted drug in 1× assay buffer (50 mM HEPES, 3 mM MgCl2, 3 mM MnCl2, and 1 mM DTT) for 30 minutes. After pre-incubating, 4 μL of ATP (1 μM) is added to each well and incubated for an additional 90 minutes. The ADP-Glo Reagent (10 μL) and Kinase Detection Reagent (20 μL) are added to each well and incubated as recommended by Promega. The reaction is quantified by measuring luminescence and the IC50 is calculated using GraphPad Prism software.

Sequence of CDK9/CycT1 (P50750 whole entry): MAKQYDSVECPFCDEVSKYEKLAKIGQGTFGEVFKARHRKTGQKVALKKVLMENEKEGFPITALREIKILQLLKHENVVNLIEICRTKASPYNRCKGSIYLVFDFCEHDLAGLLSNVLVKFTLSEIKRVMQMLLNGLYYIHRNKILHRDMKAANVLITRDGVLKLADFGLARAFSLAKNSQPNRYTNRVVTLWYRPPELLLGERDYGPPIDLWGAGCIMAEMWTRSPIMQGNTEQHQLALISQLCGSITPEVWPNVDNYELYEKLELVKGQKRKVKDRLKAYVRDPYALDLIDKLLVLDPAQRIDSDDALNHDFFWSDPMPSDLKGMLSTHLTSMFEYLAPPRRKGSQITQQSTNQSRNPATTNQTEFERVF
Sequence of CDK9/CycT1 (O60563 whole entry partner): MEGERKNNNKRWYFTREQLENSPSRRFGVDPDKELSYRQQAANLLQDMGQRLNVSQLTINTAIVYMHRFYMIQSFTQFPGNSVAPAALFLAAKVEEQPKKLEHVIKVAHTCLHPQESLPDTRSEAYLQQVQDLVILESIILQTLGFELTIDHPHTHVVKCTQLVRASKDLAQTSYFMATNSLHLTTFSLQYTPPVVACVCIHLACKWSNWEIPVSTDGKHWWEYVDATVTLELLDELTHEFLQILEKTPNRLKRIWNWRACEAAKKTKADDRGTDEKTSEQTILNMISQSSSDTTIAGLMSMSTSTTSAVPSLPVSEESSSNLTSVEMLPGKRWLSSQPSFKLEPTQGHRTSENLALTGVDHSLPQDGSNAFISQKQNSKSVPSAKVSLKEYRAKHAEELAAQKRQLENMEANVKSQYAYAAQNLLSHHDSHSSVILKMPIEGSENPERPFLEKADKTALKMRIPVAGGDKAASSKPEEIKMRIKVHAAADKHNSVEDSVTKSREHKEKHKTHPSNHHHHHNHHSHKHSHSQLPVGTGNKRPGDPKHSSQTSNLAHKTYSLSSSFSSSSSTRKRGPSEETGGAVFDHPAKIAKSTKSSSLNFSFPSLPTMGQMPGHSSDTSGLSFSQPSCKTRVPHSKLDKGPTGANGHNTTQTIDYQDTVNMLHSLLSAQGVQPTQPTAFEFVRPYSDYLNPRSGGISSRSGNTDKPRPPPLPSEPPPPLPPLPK

| SMILES | IC50 [µM] |
| --- | --- |
| O[C@@H]1CNCC[C@H]1CNc1nccc(-c2ccn3ncc(C4CCC4)c3n2)n1 (relative stereo) [Compound I-5, trans-5-[2-(3-hydroxypiperidin-4-yl)methylaminopyrimidin-4-yl]-3-cyclobutylpyrazolo[1,5-a]pyrimidine] | 1 to 5 |
| c1cc(-c2ccn3ncc(C4CC4)c3n2)nc(N[C@H]2CC[C@H](NC3CCOCC3)CC2)n1 [Compound I-1, trans-N^1-[4-[(3-cyclopropyl)pyrazolo[1,5-a]pyrimidin-5-yl]pyrimidin-2-yl]-N^4-(tetrahydro-2H-pyran-4-yl)cyclohexane-1,4-diamine] | 1 to 5 |
| CC(C)c1cnn2ccc(-c3ccnc(N[C@H]4CC[C@H](NC5CCOCC5)CC4)n3)nc12 [Compound I-3, trans-N^1-[4-[(3-isopropyl)pyrazolo[1,5-a]pyrimidin-5-yl]pyrimidin-2-yl]-N^4-(tetrahydro-2H-pyran-4-yl)cyclohexane-1,4-diamine] | < 1 |
| CC(C)c1cnn2ccc(-c3ccnc(N[C@H]4CC[C@H](N)C4)n3)nc12 [Compound I-14, (1S, 3S)-[3-[4-[3-isopropylpyrazolo[1,5-a]pyrimidin-5-yl]pyrimidin-2-yl]aminocyclopentan-1-yl]-1,3-diamine] | < 1 |
| CC(C)c1cnn2ccc(-c3ccnc(NC[C@@H]4CCNC[C@H]4O)n3)nc12 (relative stereo) [Compound I-6, trans-5-[2-(3-hydroxypiperidin-4-yl)methylaminopyrimidin-4-yl]-3-isopropylpyrazolo[1,5-a]pyrimidine] | < 1 |
| c1cc(-c2ccn3ncc(C4CCC4)c3n2)nc(N[C@H]2CC[C@H](NC3CCOCC3)CC2)n1 [Compound I-2, trans-N^1-[4-[(3-cyclobutyl)pyrazolo[1,5-a]pyrimidin-5-yl]pyrimidin-2-yl]-N^4-(tetrahydro-2H-pyran-4-yl)cyclohexane-1,4-diamine] | 1 to 5 |

Continued, values first:

| IC50 [µM] | SMILES |
| --- | --- |
| < 1 | O[C@@H]1CNCC[C@H]1CNc1nccc(-c2ccn3ncc(C4CC4)c3n2)n1 (relative stereo) [Compound I-4, trans-5-[2-(3-hydroxypiperidin-4-yl)methylaminopyrimidin-4-yl]-3-cyclopropylpyrazolo[1,5-a]pyrimidine] |
| 1 to 5 | c1cc(-c2ccn3nccc3n2)nc(N[C@H]2CC[C@H](NC3CCOCC3)CC2)n1 [Compound I-10, trans-N^1-[4-[pyrazolo[1,5-a]pyrimidin-5-yl]pyrimidin-2-yl]-N^4-(tetrahydro-2H-pyran-4-yl)cyclohexane-1,4-diamine] |
| 1 to 5 | O[C@@H]1CNCC[C@H]1CNc1nccc(-c2ccn3nccc3n2)n1 (relative stereo) [Compound I-7, trans-5-[2-(3-hydroxypiperidin-4-yl)methylaminopyrimidin-4-yl]pyrazolo[1,5-a]pyrimidine] |
| < 1 | N[C@H]1CC[C@@H](Nc2nccc(-c3ccn4nccc4n3)n2)C1 [Compound I-9, (1S, 3R)-[3-[4-[pyrazolo[1,5-a]pyrimidin-5-yl]pyrimidin-2-yl]aminocyclopentan-1-yl]-1,3-diamine] |
| < 1 | N[C@H]1CC[C@H](Nc2nccc(-c3ccn4nccc4n3)n2)C1 [Compound I-11, (1S, 3S)-[3-[4-[pyrazolo[1,5-a]pyrimidin-5-yl]pyrimidin-2-yl]aminocyclopentan-1-yl]-1,3-diamine] |
| 5 to 10 | Cc1cc2nc(-c3ccnc(N[C@H]4CC[C@H](N)C4)n3)ccn2n1 [Compound I-13, (1S, 3S)-[3-[4-[2-methylpyrazolo[1,5-a]pyrimidin-5-yl]pyrimidin-2-yl]aminocyclopentan-1-yl]-1,3-diamine] |
| < 1 | Cc1cnn2ccc(-c3ccnc(N[C@H]4CC[C@H](N)C4)n3)nc12 [Compound I-12, (1S, 3S)-[3-[4-[3-methylpyrazolo[1,5-a]pyrimidin-5-yl]pyrimidin-2-yl]aminocyclopentan-1-yl]-1,3-diamine] |
| 1 to 5 | c1cc(-c2ccn3nccc3n2)nc(NC2CCNCC2)n1 [Compound I-8, trans-5-[2-(piperidin-4-yl)aminopyrimidin-4-yl]pyrazolo[1,5-a]pyrimidine] |
